For experiment [1], the system named is differentiated SH-SY5Y cells. The experiment in a line: Pre-treatment of differentiated SH-SY5Y nerve cells before CY17 infection (confocal imaging, ELISA). The experiment is classed as cell-based, human. The method, then:
Cells were grown on 8-well chamber slides (6×10^4 cells/well, Thermo Fischer Scientific) or in 6-well plates (6×10^5 cells/well) for 16 hours in media supplemented with 10% FBS. Media were removed, and cells were washed with PBS before adding medium without FBS. Cells were infected with bacteria diluted to appropriate concentration in PBS and incubated for one or four hours at 37° C. with 5% CO2.
The two cell types were first infected with increasing concentrations of the acute cystitis strain E. coli CY-17 (10^2-10^4 cfu/ml) for 1 to 4 hours. NK1R and SP expression was used as a read out of the cellular response. […] A concentration of 10^4 cfu/ml of CY-17 and four hours of infection was chosen for further studies. Under these conditions, there was little cytotoxicity. To further characterize the neuropeptide response to bladder infection, the in vitro analysis was extended to include GALR2, OrxR2 and TAS2R43. Confocal microscopy was used in this instance. Infected cells were fixed (3.7% formaldehyde, 15 min), permeabilized (0.25% triton X-100, 5% FBS, 10 min), blocked (5% FBS, 1 h at RT), incubated overnight with primary antibodies in 5% FBS: Anti-NK1R (1:100, SC-15323, Santa Cruz), anti-SP, (1:200, ORB11399, Biorbyt), anti-orexin receptor 2, (1:200, AB10470, Abcam), anti-TAS2R43, (1:200, AB65513, Abcam), and anti-GALR2 antibodies (1:100, AB136264, Abcam). Appropriate fluorescently labeled secondary antibodies were used (Alexa Fluor® 488 goat anti-rabbit IgG, A-11034; Life Technologies, (1 hour at Room Temperature). After nuclear staining (DRAQ5, 1:1000, Abcam) slides were mounted (Fluoromount, Sigma-Aldrich), imaged by laser scanning confocal microscopy (MSM510 META confocal microscope, Carl Zeiss) and quantified by ImageJ software 1.46r (NIH).
HTB-9 cells and differentiated SH-SY5Y cells were pre-treated with SR140333, or IL-1RA Anakinra (500 ng/ml) for 30 minutes before infection with CY17 (10^4 cfu/ml, four hours), or treatment with exogenous recombinant SP (R&D System) or IL-1β (Abnova) (20 ng/ml, four hours). After infection, cells were infected with CY17 and the NK1R, SP and IL-1β response was quantified by confocal imaging. IL-1β- and SP secretion was quantified by ELISA, in culture supernatants. In nerve- and bladder epithelial cells, SR140333 inhibited the SP/NK1R response to infection, consistent with an autocrine activation loop involving SP/NK1R as shown by confocal imaging (FIG. 10a). […] SP activated IL-1β expression and secretion in bladder epithelial cells but had no effect on IL-1β on nerve cells. (*=P<0.05, **=P<0.01, ***=P<0.001, Two-tailed t-test for confocal imaging data and Mann-Whitney U-test for ELISAs.
Furthermore, to examine if the effects of NK1R inhibition can be generalized, we used two additional NK1R antagonists (CP99994 and L703.303). […]

In experiment [2] the test system is Nlrp3^−/− mice infected with CY-17. Briefly: Disease severity / bladder pathology in CY-17 infected Nlrp3^−/− mice (murine acute cystitis model). The experiment is classed as in vivo. The method, then: To inhibit the NK1R dependent response to infection, we used the NK1R antagonist SR 140333. FIG. 6a Experimental scheme of NK1R antagonist (SR140333) treatment. Susceptible Nlrp3^−/− mice were infected with CY-17 for 24 hours, and the neuropeptide response and disease severity was compared between untreated infected mice, treated and infected mice and sham treated uninfected mice. The mice were either pre-treated with SR140333 i.p. for 30 minutes prior to infection or treated i.p. 1 hour after infection. Sham treated mice received SR140333 i.p. and PBS intravesically. n=10 mice in each treatment group, n=6 in the sham treated, uninfected group. N=2 in the uninfected control group. Means+SEMs of 2 experiments, total number of mice=39. FIG. 6b Protection against gross bladder pathology in SR140333 treated mice compared untreated, infected mice, FIG. 6c Inhibition of NK1R staining in treated mice compared to infected mice not receiving SR140333. Sections were obtained from 4 mice per condition. FIG. 6d Inhibition of Nk1r expression, detected by qRT-PCR analysis of treated mice compared to untreated, infected mice. Sections were obtained from 5 mice per treatment group. FIG. 6e Attenuated SP staining in SR140333 treated infected mice compared to untreated mice (n=4 mice per condition). […] FIG. 6h Galr2 gene expression is not altered after treatment with SR140333. n=5 mice per treatment group (*=p<0.05, **=p<0.01, Mann-Whitney test). FIG. 6i Protection from bladder tissue pathology shown in H&E stained and neutrophil and bacterial immunostained sections from treated versus control mice. […] (n=10 mice per treatment group, n=4 mice per sham group, means+SEMs, *P<0.05, **P<0.01, ***P<0.001, one way Anova).
Susceptible Nlrp3^−/− mice were treated with SR140333 intra-peritoneally (1 mg/kg), one hour before infection (pretreatment) or 30 minutes after infection (post-treatment) with CY-17 (FIG. 6a). The severity of acute cystitis after 24 hours or seven days was examined and neuropeptide expression and disease severity quantified by immunohistochemistry and qRT-PCR of whole bladder RNA extracts, using primers specific for NK1R, Ppt-1 or Galr2 as described above.
Bladder tissue was more intact and the inflammatory cell infiltrate was reduced in tissues.

Entries after “also recorded” stand apart in the source; their conditions may differ.

For the molecule `CC(C)Oc1cccc(CC(=O)N2CCC[C@](CC[N+]34CCC(c5ccccc5)(CC3)CC4)(c3ccc(Cl)c(Cl)c3)C2)c1.[Cl-]` [SR140333, 1-[2-[(3S)-3-(3,4-Dichlorophenyl)-1-[2-[3-(1-methylethoxy)phenyl]acetyl]-3-piperidinyl]ethyl]-4-phenyl-1-azoniabicyclo[2.2.2]octane chloride], the “SP/NK1R response to infection (confocal imaging)” value in experiment [1] (pre-treated 30 minutes before CY17 (10^4 cfu/ml, four hours)) is on record as “inhibited”. In addition, the “SP secretion (ELISA, culture supernatants)” value in experiment [1] (pre-treated before CY17 infection) was “decrease”. In addition, in experiment [2] (24 hours post infection, vs infected mice without therapy), the “gross bladder pathology (edema, hyperemia and bladder enlargement)” value was “reduction; also recorded: Protection”. Besides, the Histology score result in experiment [2] (after treatment with SR140333) is reported as “reduced pathology”. For the same molecule, the “inflammatory cell infiltrate in tissues” value in experiment [2] (treated Nlrp3^−/− mice vs infected mice without therapy) is given as “reduced”. Moreover, the “bladder tissue pathology / tissue integrity (H&E, neutrophil and bacterial immunostained sections)” value in experiment [2] (treated versus control mice) is reported as “more intact; also recorded: Protection”.

The record behind these values is patent publication US20250082625A1, “NOVEL THERAPY” (priority 2016, published 2025).
